In the supplement of paper PMC10331698:
± gives the standard deviation of the averaged measurements.

Legend:
Assay in all cases: level (log10 ratio to DMSO vehicle control); higher = higher biomarker level / cell amount than vehicle control
Conditions in all cases: in DMSO
[1] = compound: O=P(O)(O)CCC(F)(F)C(F)(F)C(F)(F)C(F)(F)C(F)(F)C(F)(F)C(F)(F)C(F)(F)F [((Perfluorooctyl)ethyl)phosphonic acid]
Protocol: (§1)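 BioMAP Diversity Plus panel of 12 human primary cell co-culture systems (3C, 4H, LPS, SAg, BT, BF4T, BE3C, CASM3C, HDF3CGF, KF3CT, MyoF, Mphg). Compounds were added 1 h before stimulation and left for 24 h (MyoF 48 h; BT 72 h for soluble read-outs or 6 d for IgG). Biomarkers were read by ELISA, cytotoxicity by SRB, PBMC viability and proliferation by Alamar Blue. Each well value was divided by the mean of 8 DMSO control wells on the same plate and log10 transformed; duplicate blinded samples were tested at 4 concentrations.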

[2] = compound: O=S(=O)(O)C(F)(F)C(F)(F)C(F)(F)C(F)(F)F [Perfluorobutanesulfonic acid]
Protocol: as §1

[3] = compound: O=C(O)CCC(F)(F)C(F)(F)C(F)(F)F [3:3 Fluorotelomer carboxylic acid]
Protocol: as §1

1H,1H-Heptafluorobutanol = compound: OCC(F)(F)C(F)(F)C(F)(F)F [1H,1H-Heptafluorobutanol]
Protocol: as §1

[4] = compound: FC(F)(F)C(F)(F)C(F)(F)C(F)(F)C(F)(F)C(F)(F)C(F)(F)CCI [1-Iodo-1H,1H,2H,2H-perfluorononane]
Protocol: as §1

[5] = compound: C=CC(=O)OCCC(F)(F)C(F)(F)C(F)(F)C(F)(F)F [2-(Perfluorobutyl)ethyl acrylate]
Protocol: as §1

[6] = compound: C=C(C)C(=O)OCC(F)(F)C(F)(F)C(F)(F)C(F)(F)C(F)(F)C(F)(F)C(F)(F)F
Protocol: as §1

Test System | level (log10) ([1]; 6700 nM) | level (log10) ([1]; 20000 nM) | level (log10) ([1]; 60000 nM) | level (log10) ([2]; 6700 nM) | level (log10) ([2]; 20000 nM) | level (log10) ([2]; 60000 nM) | level (log10) ([3]; 6700 nM) | level (log10) ([3]; 20000 nM) | level (log10) ([3]; 60000 nM) | level (log10) (1H,1H-Heptafluorobutanol; 6700 nM) | level (log10) (1H,1H-Heptafluorobutanol; 20000 nM) | level (log10) (1H,1H-Heptafluorobutanol; 60000 nM) | level (log10) ([4]; 6700 nM) | level (log10) ([4]; 20000 nM) | level (log10) ([5]; 6700 nM) | level (log10) ([5]; 20000 nM) | level (log10) ([5]; 60000 nM) | level (log10) ([6]; 6700 nM) | level (log10) ([6]; 20000 nM)
3C:CCL2/MCP-1 | 0.0005 ± 0.0092 | -0.0115 ± 0.0078 | -0.0085 ± 0.06 | 0.0025 ± 0.05 | 0.0015 ± 0.021 | 0.0355 ± 0.043 | -0.011 ± 0.013 | -0.0025 ± 0.005 | 0.022 ± 0.037 | -0.001 | -0.0055 ± 0.012 | 0.007 ± 0.028 | -0.005 | 0.019 ± 0.011 | -0.0105 ± 0.021 | -0.0305 ± 0.0035 | -0.0245 ± 0.029 | -0.013 ± 0.0042 | 0.018 ± 0.025
3C:CD54/ICAM-1 | -0.012 ± 0.014 | -0.0185 ± 0.012 | -0.021 ± 0.0085 | -0.008 ± 0.0014 | 0.0035 ± 0.0021 | 0.0015 ± 0.0021 | -0.019 ± 0.0099 | -0.009 ± 0.023 | -0.0015 ± 0.023 | 0.0095 ± 0.0064 | 0.003 ± 0.0085 | 0.0075 ± 0.0064 | -0.0115 ± 0.00071 | 0.0025 ± 0.016 | 0.0055 ± 0.0021 | -0.01 ± 0.0042 | -0.01 ± 0.011 | 0.019 ± 0.028 | 0.014 ± 0.018
3C:CD62E/E-Selectin | -0.011 ± 0.025 | -0.032 ± 0.021 | -0.056 ± 0.011 | -0.0165 ± 0.022 | -0.008 ± 0.021 | 0.0045 ± 0.021 | -0.006 ± 0.0042 | 0.001 ± 0.013 | 0.006 ± 0.0071 | -0.006 ± 0.0028 | -0.0025 ± 0.0035 | 0.015 ± 0.016 | -0.0135 ± 0.0035 | -0.028 ± 0.014 | -0.016 ± 0.0028 | -0.059 ± 0.0014 | -0.163 ± 0.05 | 0.0095 ± 0.023 | 0.0075 ± 0.0092
3C:CD106/VCAM-1 | -0.0115 ± 0.016 | -0.0345 ± 0.005 | -0.054 ± 0.0042 | -0.0215 ± 0.015 | -0.016 ± 0.025 | -0.006 ± 0.013 | -0.0135 ± 0.022 | -0.028 ± 0.024 | -0.019 ± 0.0085 | 0.008 ± 0.033 | 0.018 ± 0.025 | 0.001 ± 0.037 | -0.015 ± 0.014 | -0.0115 ± 0.0021 | -0.0335 ± 0.005 | -0.0715 ± 0.039 | -0.14 ± 0.04 | -0.0145 ± 0.005 | -0.0025 ± 0.018
3C:CD141/Thrombomodulin | -0.0115 ± 0.00071 | -0.0115 ± 0.0078 | 0.013 ± 0.016 | -0.0185 ± 0.049 | -0.019 ± 0.0085 | -0.054 ± 0.0085 | -0.0105 ± 0.011 | -0.018 ± 0.047 | -0.006 ± 0.013 | -0.0025 ± 0.018 | -0.005 ± 0.0042 | 0.0195 ± 0.005 | -0.028 ± 0.0014 | -0.01 ± 0.041 | -0.059 ± 0.027 | -0.0955 ± 0.025 | -0.142 ± 0.027 | -0.038 ± 0.0057 | -0.0015 ± 0.032
3C:CD142/Tissue Factor | 0.025 ± 0.03 | 0.0455 ± 0.015 | 0.101 ± 0.023 | 0.003 ± 0.0028 | 0.001 ± 0.0071 | -0.005 ± 0.038 | -0.024 ± 0.0014 | 0.0015 ± 0.0078 | 0.0275 ± 0.011 | -0.0065 ± 0.021 | 0.0105 ± 0.015 | 0.026 ± 0.025 | 0.01 ± 0.0071 | 0.0065 ± 0.0078 | -0.0105 ± 0.043 | -0.127 ± 0.034 | -0.381 ± 0.016 | -0.022 ± 0.058 | -0.005 ± 0.051
BE3C:Keratin 8/18 | -0.015 ± 0.011 | -0.012 ± 0.0028 | -0.006 ± 0.021 | 0.003 ± 0.0014 | -0.0035 ± 0.00071 | -0.0165 ± 0.0078 | 0.0025 ± 0.0021 | -0.003 ± 0.0042 | -0.023 ± 0.0057 | -0.023 ± 0.041 | 0.0035 ± 0.019 | -0.009 ± 0.037 | -0.005 ± 0.017 | -0.007 ± 0.0085 | -0.0135 ± 0.025 | 0 ± 0.016 | 0.006 ± 0.013 | -0.008 ± 0.017 | -0.028 ± 0.027
BE3C:MMP-1 | 0.0705 ± 0.011 | 0.111 ± 0.018 | 0.125 ± 0.061 | 0.0055 ± 0.028 | -0.011 ± 0.0057 | 0.019 ± 0.013 | -0.006 ± 0.037 | -0.0235 ± 0.011 | 0.0125 ± 0.044 | 0.0035 ± 0.0078 | -0.015 ± 0.02 | 0.0025 ± 0.028 | 0.011 ± 0.0071 | 0.059 ± 0.031 | 0.0175 ± 0.028 | -0.007 ± 0.016 | 0.0705 ± 0.022 | 0.02 ± 0.021 | 0.0655 ± 0.064
BE3C:MMP-9 | -0.0155 ± 0.026 | -0.006 ± 0.044 | 0.014 ± 0.016 | -0.0125 ± 0.016 | -0.0205 ± 0.0035 | -0.0315 ± 0.0092 | -0.0025 ± 0.022 | 0.0085 ± 0.0078 | -0.0085 ± 0.025 | 0.002 ± 0.0042 | 0.0015 ± 0.0064 | 0.0175 ± 0.033 | -0.0045 ± 0.013 | -0.0045 ± 0.026 | -0.004 ± 0.0071 | -0.006 ± 0.0014 | -0.028 ± 0.0085 | 0 ± 0.0042 | -0.0005 ± 0.0092
BE3C:PAI-I | 0.015 ± 0.0014 | -0.0115 ± 0.011 | -0.032 ± 0.0042 | -0.0015 ± 0.0035 | -0.006 ± 0.013 | 0.008 ± 0.013 | -0.0095 ± 0.00071 | -0.0025 ± 0.015 | 0.0005 ± 0.0078 | -0.0285 ± 0.0078 | -0.0185 ± 0.03 | -0.0115 ± 0.0035 | 0.016 ± 0.0071 | -0.01 ± 0.0099 | 0.0125 ± 0.033 | 0.038 ± 0.018 | 0.076 ± 0.021 | 0.0055 ± 0.0078 | 0.0105 ± 0.018
BE3C:SRB | -0.004 | -0.011 ± 0.0085 | 0.0015 ± 0.015 | 0.001 | -0.004 ± 0.0028 | -0.003 ± 0.0014 | -0.0065 ± 0.0064 | -0.0065 ± 0.005 | 0.001 ± 0.013 | -0.0115 ± 0.0078 | -0.0045 ± 0.011 | -0.0005 ± 0.0064 | -0.0035 ± 0.0021 | 0.0005 ± 0.00071 | -0.0035 ± 0.005 | -0.0055 ± 0.0021 | -0.0015 ± 0.0021 | -0.0015 ± 0.0021 | -0.0025 ± 0.00071
BE3C:tPA | 0.123 ± 0.005 | 0.191 ± 0.0014 | 0.202 ± 0.032 | 0.0155 ± 0.022 | -0.0135 ± 0.0078 | 0 ± 0.025 | -0.0195 ± 0.0035 | -0.03 ± 0.016 | -0.0365 ± 0.015 | -0.019 ± 0.021 | -0.0125 ± 0.061 | 0.0005 ± 0.005 | 0.004 ± 0.035 | 0.011 ± 0.035 | -0.036 ± 0.041 | -0.056 ± 0.0014 | -0.13 ± 0.018 | -0.013 ± 0.0014 | 0.007
BE3C:uPA | 0.014 ± 0.0014 | 0.022 ± 0.0014 | 0.023 ± 0.0014 | -0.0035 ± 0.0021 | -0.007 ± 0.0042 | -0.005 ± 0.0099 | -0.0045 ± 0.023 | -0.018 ± 0.017 | -0.0115 ± 0.0021 | -0.0035 ± 0.005 | 0.015 ± 0.011 | 0.002 ± 0.0028 | 0.003 ± 0.033 | -0.0125 ± 0.015 | 0.0075 ± 0.032 | -0.0035 ± 0.022 | -0.0175 ± 0.015 | -0.008 ± 0.011 | -0.004 ± 0.021
